Results as given in ChEMBL document CHEMBL5729615, “Inhibitors of protein arginine methyltransferase 5 (PRMT5), pharmaceutical products thereof, and methods thereof” (2023).

Target: PRMT5/MEP50 complex (Homo sapiens, UniProt O14744)
Experiment: 2.5 μL of compound solution in the assay buffer with 4% DMSO and 5 μL of PRMT5/MRP50 complex/SAM mixture solution in the assay buffer which was pre-incubated for 30 minutes were added into a white low volume 384 well microtiter plate. This mixture solution was incubated for 15 minutes with gentle shaking at room temperature. Methyl transfer reaction was initiated by adding 2.5 μL of Biotin-H4 (1-21) peptide substrate solution in the assay buffer. […] The reaction was allowed to perform for 120 minutes in dark with gentle shaking at room temperature after which 5 μL of Anti-H4R3-Me AlphaLISA acceptor beads in detection buffer from the manufacturer was added into the reaction mixture followed by incubation for 60 minutes. 10 μL of Streptavidin labeled AlphaLISA donor beads in detection buffer was added into the mixture followed by 30 minute incubation. Final acceptor and donor beads concentrations were 10 μg/mL.
Format: protein-complex assay

PRMT5/MEP50 complex, sequence (O14744 whole entry): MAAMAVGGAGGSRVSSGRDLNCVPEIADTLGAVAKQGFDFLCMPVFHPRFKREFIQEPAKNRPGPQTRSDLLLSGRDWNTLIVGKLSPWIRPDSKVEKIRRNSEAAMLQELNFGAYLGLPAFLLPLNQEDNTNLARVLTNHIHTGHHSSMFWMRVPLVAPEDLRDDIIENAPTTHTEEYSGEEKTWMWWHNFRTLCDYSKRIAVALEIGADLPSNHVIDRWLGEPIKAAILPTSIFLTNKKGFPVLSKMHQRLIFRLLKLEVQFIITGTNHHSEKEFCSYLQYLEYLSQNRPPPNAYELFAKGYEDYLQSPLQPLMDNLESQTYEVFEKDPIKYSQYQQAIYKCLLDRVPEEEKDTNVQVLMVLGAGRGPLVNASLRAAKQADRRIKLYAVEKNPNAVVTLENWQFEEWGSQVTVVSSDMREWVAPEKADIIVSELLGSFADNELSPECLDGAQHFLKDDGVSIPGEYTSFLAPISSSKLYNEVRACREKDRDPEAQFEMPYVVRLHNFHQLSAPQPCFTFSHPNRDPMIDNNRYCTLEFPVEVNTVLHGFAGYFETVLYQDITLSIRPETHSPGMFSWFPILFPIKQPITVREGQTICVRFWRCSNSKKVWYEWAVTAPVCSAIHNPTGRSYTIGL
PRMT5/MEP50 complex, sequence (Q9BQA1 whole entry, further chain): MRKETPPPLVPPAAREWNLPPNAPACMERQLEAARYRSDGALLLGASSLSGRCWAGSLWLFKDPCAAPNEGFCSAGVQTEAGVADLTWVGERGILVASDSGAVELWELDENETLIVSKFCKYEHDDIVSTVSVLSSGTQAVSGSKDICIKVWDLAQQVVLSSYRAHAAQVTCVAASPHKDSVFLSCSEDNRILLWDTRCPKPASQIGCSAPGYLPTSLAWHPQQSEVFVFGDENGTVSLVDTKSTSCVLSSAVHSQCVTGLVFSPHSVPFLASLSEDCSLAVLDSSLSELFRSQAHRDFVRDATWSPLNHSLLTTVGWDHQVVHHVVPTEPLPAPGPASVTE

## O=C1c2cc(NC3CCC3)ccc2CCN1CC(O)CN1CCc2ccccc2C1 (stereo unspecified)
  IC50: 236 nM
